Source: patent US6046219A, “Method for the treatment of conditions mediated by collagen formation together with cell proliferation by application of inhibitors of protein hydroxylation” (Cornell Research Foundation, Inc., priority 1997, dated 2000)
“Also recorded” adds a separate entry of the source.

Assays:
Assay type in all cases: cell-based
[1] = tested on: deoxyhypusyl hydroxylase activity in human B-lymphocytes; test: Cellular deoxyhypusyl hydroxylase in human B-lymphocytes; settings: FIG. 3a
Protocol: In FIG. 3a, the effect on the human enzyme was determined by measuring in proliferating cultured B-lymphocytes the covalent incorporation of tritiated spermidine-derived label into cellular protein, after standard hydrolysis, chromatographic separation of amino acids, and expression of the results relative to uninhibited controls. In FIG. 3b, a standard chromatographic elution profile is shown as obtained from cultured human smooth muscle cells ("SMC"), grown out of coronary atherosclerotic lesions and metabolically labeled in the absence and presence of L-mimosine. […]
The cellular conversion of the precursor deoxyhypusine to the hydroxylated hypusine in cells was examined, after preincubation with the inhibitor for 60 minutes, by labeling the human cells with ^3 H-spermidine (5 μCi/ml) in 25 cm^2 flasks (1×10^6 cells/flask) for 24 hours prior to cell lysis, precipitation with 10% TCA containing 1 mM each of putrescine, spermidine, and spermine, and hydrolysis in 6 N HCl at 110° C. for 16 hours. The hydrolysate was analyzed for labeled amino acids on an amino acid analyzer by published methods (Park et al., J. Biol. Chem., 257:7217-7222 (1982), which is hereby incorporated by reference). The retention of purified hypusine and deoxyhypusine was determined from standards.

[2] = biological target: T1, prolyl 4-hydroxylase in human coronary smooth muscle cells (SMC) (Homo sapiens, UniProt P13674); test: Assay of cellular human prolyl 4-hydroxylase in lesion-derived SMC (3H-proline labeling); settings: upon removal of the inhibitor
T1 construct: 3H-proline to 3H-hydroxyproline conversion
Protocol: Those SMC, immunocytochemically identified by reactivity to contractile α-actinas shown in FIGS. 4b and 4c were pretreated with inhibitor for 30 minutes prior to routine metabolic labeling with tritiated proline ("^3 H-Pro") for 24 hours, followed by standard hydrolysis and separation of amino acids from both supernatant and cells. The degree of inhibition of scar collagen formation was determined by measuring formation of tritiated hydroxyproline ("^3 H-Hyp").
Human coronary artery smooth muscle cells ("SMC") were isolated from specimens collected immediately after directional rotary atherectomy (Simpson AtheroCath, DVI, Inc., Redwood City, Calif.). […] To verify the SMC phenotype of the cultures, cells were plated onto LabTek 8-chamber slides and stained by indirect immunofluorescence for the SMC marker contractile α-actin, using a mouse monoclonal antibody specific for the contractile smooth muscle α-actin (clone No. IA4; Sigma) which was detected with FITC- or peroxidase-labeled […] (Sigma). […] Results were photodocumented with a Nikon Labophot 2 fluorescence microscope. […]

[3] = tested on: prolyl 4-hydroxylase in human lung fibroblast line MRC-5; test: Assay of cellular human prolyl 4-hydroxylase / collagen secretion in MRC-5 lung fibroblasts; settings: human lung fibroblasts MRC-5, FIG. 5a-f
Protocol: FIGS. 5a-f show, as percent of uninhibited controls, the suppressive effect of six hydroxypyridone compounds on prolyl 4-hydroxylation in a human lung fibroblast line ("MRC-5"). Those cells were pretreated with inhibitor for 30 minutes prior to routine metabolic labeling with tritiated proline ("Pro") for 24 hours, followed by standard hydrolysis and separation of amino acids from both supernatant and cells for determination of proline conversion into hydroxyproline ("Hyp").
The established human lung fibroblast line MRC-5 was used, maintained, and propagated by routine cell culture techniques.
SMC or MRC-5 cells (3-5×10^6 cells/35 mm well) were labeled in the presence or absence of hydroxypyridones, with ^3 H-proline (Pro) (4 μCi/ml) for 24 hours in proline- and serum-free Dulbecco […] ("DMEM") containing 50 μg/ml sodium ascorbate and 20 μg/ml β-aminopropionitrile. […] The hydrolysate was derivatized with phenylisothiocyanate and analyzed for ^3 H-proline ("Pro") and ^3 H-hydroxyproline ("Hyp") by HPLC on a reverse-phase C18 column, using an automated HPLC system (Hewlett-Packard, Wilmington, Del.) with an in-line scintillation counter (Inus Systems, Inc., Tampa, Fla.). The position of proline and hydroxyproline was determined from tritiated standards.

[4] = tested on: plasminogen activator inhibitor-1 (PAI-1); test: Plasminogen activator inhibitor assay, SMC supernatants; settings: human SMC, FIG. 6
Protocol: Type III collagen biosynthesis (FIG. 6a) was assessed by a commercial radioimmunoassay using a monoclonal antibody to the N-terminal propeptide of type III procollagen. Plasminogen activator inhibitor-1 ("PAI-1") activity was measured by a standard enzymatic method. Type I collagen biosynthesis (FIG. 6b) was assessed by routine Western blot using a monoclonal antibody to the C-terminal propeptide of type I procollagen.
Supernatants of human SMC incubated with the hydroxypyridone L-mimosine under serum-free conditions (to avoid plasma-derived inhibitors) were tested for their ability to inhibit a standard amount of urokinase-type plasminogen activator (uPA) in the presence of plasminogen and the fluorometric peptide plasmin substrate d-Val-Leu-Lys-aminomethylcoumarin (Enzyme Systems, Livermore, Calif.). Inhibition of plasmin generation was compared to a standard curve of human PAI-1 (American Diagnostica, Greenwich, Conn.) to yield PAI-1 activity.

T1 sequence (P13674 18-534): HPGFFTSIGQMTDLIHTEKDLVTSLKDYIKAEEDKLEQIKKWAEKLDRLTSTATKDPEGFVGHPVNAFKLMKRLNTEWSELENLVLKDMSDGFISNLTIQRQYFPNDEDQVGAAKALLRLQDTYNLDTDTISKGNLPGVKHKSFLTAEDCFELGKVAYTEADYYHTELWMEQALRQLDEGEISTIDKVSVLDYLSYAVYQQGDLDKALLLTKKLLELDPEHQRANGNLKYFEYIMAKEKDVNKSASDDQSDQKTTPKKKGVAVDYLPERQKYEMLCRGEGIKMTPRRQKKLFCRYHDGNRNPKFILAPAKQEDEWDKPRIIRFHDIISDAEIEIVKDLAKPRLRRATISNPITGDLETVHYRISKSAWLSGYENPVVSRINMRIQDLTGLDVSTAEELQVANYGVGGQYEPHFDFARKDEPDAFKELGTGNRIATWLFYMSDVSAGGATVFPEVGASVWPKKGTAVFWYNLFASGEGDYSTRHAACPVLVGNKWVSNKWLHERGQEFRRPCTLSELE
T1 sequence (P07237 18-508 partner): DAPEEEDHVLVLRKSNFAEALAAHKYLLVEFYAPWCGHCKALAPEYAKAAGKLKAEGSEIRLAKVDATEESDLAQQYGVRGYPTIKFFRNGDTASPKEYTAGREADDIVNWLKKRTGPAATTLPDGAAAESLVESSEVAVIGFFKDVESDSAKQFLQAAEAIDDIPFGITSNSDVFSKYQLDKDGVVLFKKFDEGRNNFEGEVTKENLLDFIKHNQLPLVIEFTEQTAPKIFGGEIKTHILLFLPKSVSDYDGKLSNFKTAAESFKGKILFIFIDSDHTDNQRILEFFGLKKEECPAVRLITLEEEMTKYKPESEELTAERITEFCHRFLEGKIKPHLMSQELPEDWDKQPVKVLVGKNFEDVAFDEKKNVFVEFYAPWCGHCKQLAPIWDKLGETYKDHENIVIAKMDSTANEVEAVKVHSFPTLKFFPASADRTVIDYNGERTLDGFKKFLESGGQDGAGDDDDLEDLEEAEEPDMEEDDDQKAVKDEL

N[C@@H](Cn1ccc(=O)c(O)c1)C(=O)O [L-Mimosine]
inhibition of deoxyhypusyl hydroxylase activity [1]: inhibit deoxyhypusyl hydroxylase activity
reversibility of suppression of cellular prolyl hydroxylase activity [2]: rapidly reversible
secretion of hydroxyproline-containing proteins (collagen secretion) [3]: selectively inhibited
secretion of plasminogen activator inhibitor-1 (PAI-1) [4]: not affected; also recorded: not on release of plasminogen activator inhibitor-1
